Test results taken from PubChem BioAssay AID248 (DTP/NCI, 2004).
Values joined by “and” are separate entries in the source; they are usually repeats but may differ in a detail not shown here. Identical values can stand only once. Inconclusive results and toxic doses are left out. No stated cut-off is given here; in the data, active means T/C of 150% or more; inactive means T/C below 125%.

Tested on: L1210 leukemia ip in BDF1 mice, survival T/C
Experiment: NCI In Vivo Anticancer Drug Screen. Data for tumor model L1210 Leukemia (intraperitoneal) in B6D2F1 (BDF1) mice
Details: endpoint: mean survival time, higher = longer survival
Procedure, shortened: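 Read-out is survival time, reported as the treated-group measurement over the vehicle-control measurement.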

[1] = dose: 100.0 mg/kg/injection, schedule: Q01DX001 (ip), vehicle: acetone
[2] = dose: 200.0 mg/kg/injection, schedule: Q01DX001 (ip), vehicle: acetone
[3] = dose: 75.0 mg/kg/injection, schedule: Q01DX001 (ip), vehicle: carboxymethylcellulose (CMC)
[4] = dose: 150.0 mg/kg/injection, schedule: Q01DX001 (ip), vehicle: carboxymethylcellulose (CMC)
[5] = dose: 300.0 mg/kg/injection, schedule: Q01DX001 (ip), vehicle: carboxymethylcellulose (CMC)
[6] = dose: 100.0 mg/kg/injection, schedule: Q01DX001 (ip), vehicle: Klucel (hydroxypropylcellulose) (HPC)
[7] = dose: 100.0 mg/kg/injection, schedule: Q01DX009 (ip), vehicle: Klucel (hydroxypropylcellulose) (HPC)
[8] = dose: 100.0 mg/kg/injection, schedule: Q04DX003 (ip), vehicle: Klucel (hydroxypropylcellulose) (HPC)
[9] = dose: 200.0 mg/kg/injection, schedule: Q01DX001 (ip), vehicle: Klucel (hydroxypropylcellulose) (HPC)
[10] = dose: 200.0 mg/kg/injection, schedule: Q01DX009 (ip), vehicle: Klucel (hydroxypropylcellulose) (HPC)
[11] = dose: 200.0 mg/kg/injection, schedule: Q04DX003 (ip), vehicle: Klucel (hydroxypropylcellulose) (HPC)
[12] = dose: 400.0 mg/kg/injection, schedule: Q01DX001 (ip), vehicle: Klucel (hydroxypropylcellulose) (HPC)
[13] = dose: 400.0 mg/kg/injection, schedule: Q01DX009 (ip), vehicle: Klucel (hydroxypropylcellulose) (HPC)
[14] = dose: 400.0 mg/kg/injection, schedule: Q04DX003 (ip), vehicle: Klucel (hydroxypropylcellulose) (HPC)
[15] = dose: 100.0 mg/kg/injection, schedule: Q04DX002 (ip), vehicle: Klucel (hydroxypropylcellulose) (HPC)
[16] = dose: 200.0 mg/kg/injection, schedule: Q04DX002 (ip), vehicle: Klucel (hydroxypropylcellulose) (HPC)
[17] = dose: 400.0 mg/kg/injection, schedule: Q04DX002 (ip), vehicle: Klucel (hydroxypropylcellulose) (HPC)

Measured: T/C

N#Cc1nnn(-c2ccccc2)n1
inactive: dose: 25.0 mg/kg/injection, schedule: Q01DX009 (ip), vehicle: acetone 101 % of control | dose: 50.0 mg/kg/injection, schedule: Q01DX009 (ip), vehicle: acetone 111 % of control | dose: 50.0 mg/kg/injection, schedule: Q04DX003 (ip), vehicle: acetone 93 % of control | [1] 99 % of control | dose: 100.0 mg/kg/injection, schedule: Q04DX003 (ip), vehicle: acetone 88 % of control | [2] 99 % of control

CN(N)C(=O)Nc1cccc(Cl)c1
inactive: [3] 102 % of control | [4] 107 % of control | [5] 107 % of control

CC(=O)NC1CCC2CCCCC2C1 (configuration not stated)
inactive: [6] 97 % of control | [7] 103 % of control | [8] 97 % of control | [9] 101 % of control | [10] 95 % of control | [11] 99 % of control | [12] 101 % of control | [13] 98 % of control | [14] 96 % of control

O=C(OC12CCCCC(CCCC1)O2)c1ccc([N+](=O)[O-])cc1
inactive: dose: 100.0 mg/kg/injection, schedule: Q01DX001 (ip), vehicle: saline 91 % of control | dose: 200.0 mg/kg/injection, schedule: Q01DX001 (ip), vehicle: saline 93 % of control | dose: 400.0 mg/kg/injection, schedule: Q01DX001 (ip), vehicle: saline 98 % of control

CCOC(=O)c1cc(N)c[nH]1
inactive: dose: 50.0 mg/kg/injection, schedule: Q01DX009 (ip), vehicle: saline 109 % of control | dose: 100.0 mg/kg/injection, schedule: Q01DX009 (ip), vehicle: saline 96 % of control | dose: 100.0 mg/kg/injection, schedule: Q04DX003 (ip), vehicle: saline 89 % of control | dose: 200.0 mg/kg/injection, schedule: Q01DX009 (ip), vehicle: saline 96 % of control | dose: 200.0 mg/kg/injection, schedule: Q04DX003 (ip), vehicle: saline 94 % of control

CCC(CC)NCC(C)OC(=O)c1ccc([N+](=O)[O-])cc1 (configuration not stated)
inactive: [3] 96 % of control | [4] 105 % of control | [5] 97 % of control

C=CCc1ccc(OCC(=O)O)c(OC)c1
inactive: dose: 100.0 mg/kg/injection, schedule: Q04DX003 (ip), vehicle: saline with Tween-80 106 % of control | dose: 200.0 mg/kg/injection, schedule: Q04DX003 (ip), vehicle: saline with Tween-80 93 % of control | dose: 400.0 mg/kg/injection, schedule: Q04DX003 (ip), vehicle: saline with Tween-80 97 % of control

Nc1ncc(N=O)c(=O)[nH]1
inactive: [15] 96 % of control | [16] 99 % of control | [17] 96 % of control and 101 % of control

c1ccc2c(c1)CCc1ccccc1N=N2
inactive: [6] 96 % of control | [9] 92 % of control | [12] 94 % of control

O=c1c2ccccc2cc2ccccn12
inactive: [7] 100 % of control | [8] 95 % of control | [10] 94 % of control | [11] 97 % of control | [13] 92 % of control | [14] 97 % of control

COc1ccc(C(=O)N(C)c2ccccc2)cc1
inactive: [8] 94 % of control | [11] 89 % of control | [14] 93 % of control

C=CCCCCCCCCC(=O)N/N=C(/C)c1ccc(C)cc1
inactive: [15] 103 % of control | [16] 118 % of control | [17] 92 % of control

Cn1c(N)c(C(=O)CCCc2ccc(N(CCCl)CCCl)cc2)c(=O)n(C)c1=O
inactive: dose: 50.0 mg/kg/injection, schedule: Q01DX001 (ip), vehicle: carboxymethylcellulose (CMC) 102 % of control | dose: 100.0 mg/kg/injection, schedule: Q01DX001 (ip), vehicle: carboxymethylcellulose (CMC) 107 % of control | dose: 200.0 mg/kg/injection, schedule: Q01DX001 (ip), vehicle: carboxymethylcellulose (CMC) 105 % of control | dose: 400.0 mg/kg/injection, schedule: Q01DX001 (ip), vehicle: carboxymethylcellulose (CMC) 102 % of control

Cc1ccc(COP(=O)(c2ccccc2)c2ccccc2)cc1
inactive: dose: 66.0 mg/kg/injection, schedule: Q01DX001 (ip), vehicle: Klucel (hydroxypropylcellulose) (HPC) 98 % of control | [6] 93 % of control | dose: 150.0 mg/kg/injection, schedule: Q01DX001 (ip), vehicle: Klucel (hydroxypropylcellulose) (HPC) 97 % of control | [9] 91 % of control

O=[N+]([O-])c1cccn2nc(-c3ccccc3)nc12
inactive: [1] 98 % of control | [2] 98 % of control | dose: 400.0 mg/kg/injection, schedule: Q01DX001 (ip), vehicle: acetone 101 % of control

O=C1c2ccccc2C(=O)N1c1ccccc1-c1ccccc1
inactive: dose: 25.0 mg/kg/injection, schedule: Q01DX001 (ip), vehicle: Klucel (hydroxypropylcellulose) (HPC) 95 % of control | dose: 50.0 mg/kg/injection, schedule: Q01DX001 (ip), vehicle: Klucel (hydroxypropylcellulose) (HPC) 103 % of control | [6] 101 % of control and 121 % of control | [9] 93 % of control and 97 % of control | [12] 89 % of control

O=[N+]([O-])c1ccccc1CN1c2ccccc2N=C2c3ccccc3CC21 (configuration not stated)
inactive: [8] 88 % of control | [11] 91 % of control | [14] 100 % of control

CC(=O)C(=Cc1ccccc1Cl)C(C)=O
inactive: [6] 104 % of control | [8] 94 % of control | [9] 98 % of control | [11] 91 % of control | [12] 90 % of control | [14] 100 % of control

COc1ccc(C(=O)c2cnc(C)n2Cc2ccccc2)cc1
inactive: [7] 106 % of control | [10] 106 % of control | [13] 114 % of control

O=Cc1ccc(Oc2ccc([N+](=O)[O-])cc2[N+](=O)[O-])cc1
inactive: dose: 25.0 mg/kg/injection, schedule: Q01DX009 (ip), vehicle: water 96 % of control | dose: 50.0 mg/kg/injection, schedule: Q01DX009 (ip), vehicle: water 102 % of control | dose: 100.0 mg/kg/injection, schedule: Q01DX009 (ip), vehicle: water 104 % of control | dose: 200.0 mg/kg/injection, schedule: Q01DX009 (ip), vehicle: water 95 % of control | dose: 400.0 mg/kg/injection, schedule: Q01DX009 (ip), vehicle: water 98 % of control

NC(=O)C(Cc1ccc(O)cc1)NC(=O)c1ccccc1 (configuration not stated)
inactive: [7] 95 % of control | [8] 105 % of control | [10] 90 % of control | [11] 102 % of control | [13] 93 % of control | [14] 94 % of control

CC(C)OC(=S)Nc1ccccc1
inactive: dose: 50.0 mg/kg/injection, schedule: Q01DX009 (ip), vehicle: Klucel (hydroxypropylcellulose) (HPC) 102 % of control | dose: 100.0 mg/kg/injection, schedule: Q01DX001 (ip), vehicle: gum acacia 102 % of control | [7] 107 % of control | dose: 200.0 mg/kg/injection, schedule: Q01DX001 (ip), vehicle: gum acacia 98 % of control | [10] 98 % of control | dose: 400.0 mg/kg/injection, schedule: Q01DX001 (ip), vehicle: gum acacia 95 % of control

COc1ccc(NC(=O)CC#N)cc1
inactive: [6] 101 % of control | [9] 95 % of control
